Assay results from BindingDB's records for patent US10738053 (Hoffmann-La Roche, 2020).

Target: Autotaxin (Homo sapiens, UniProt Q13822)
Assay: Enzyme Inhibition Assay
Description: Then, 15 μL of 41.7 nM ATX solution was added (30 nM final concentration), mixed five times and then incubated for 15 minutes at 30° C. 10 μL of MR121 substrate solution was added (1 μM final concentration), mixed 30 times and then incubated for 15 minutes at 30° C.

NS(=O)(=O)c1ccc(C(=O)N2C[C@H]3CN(C(=O)COc4ccc(OC(F)(F)F)cc4)C[C@]3(F)C2)c(F)c1 (relative stereo) [US10738053, Example 3.01]
IC50: 7 nM
